Each molecule was assayed against human Nav 1.8 (Homo sapiens, UniProt Q9Y5Y9) (assay: E-VIPR assay detecting and measuring Nav inhibition properties). Details: HEK cells expressing a truncated form of human Nav 1.8; assay performed in the presence of human serum (compound numbers followed by "*"); read-out: measured IC50 value in the E-VIPR Assay.
Type: cell-based
Outline: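 Nav inhibition was read by E-VIPR: cells were electrically stimulated while coumarin/oxonol FRET emissions were recorded. Cells were HEK expressing a truncated human Nav 1.8 and co-transduced with KIR2.1, and were assayed in 25% final human serum.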

Sequence of human Nav 1.8 (Q9Y5Y9 126-399 limits assumed): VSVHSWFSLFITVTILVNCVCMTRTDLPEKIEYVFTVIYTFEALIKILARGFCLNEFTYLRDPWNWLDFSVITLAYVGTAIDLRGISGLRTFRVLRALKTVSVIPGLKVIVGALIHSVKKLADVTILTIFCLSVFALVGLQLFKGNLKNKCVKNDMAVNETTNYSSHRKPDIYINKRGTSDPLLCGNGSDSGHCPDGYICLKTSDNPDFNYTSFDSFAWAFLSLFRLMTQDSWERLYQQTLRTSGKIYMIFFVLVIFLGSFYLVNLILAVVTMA
Sequence of human Nav 1.8 (Q9Y5Y9 660-890 limits assumed): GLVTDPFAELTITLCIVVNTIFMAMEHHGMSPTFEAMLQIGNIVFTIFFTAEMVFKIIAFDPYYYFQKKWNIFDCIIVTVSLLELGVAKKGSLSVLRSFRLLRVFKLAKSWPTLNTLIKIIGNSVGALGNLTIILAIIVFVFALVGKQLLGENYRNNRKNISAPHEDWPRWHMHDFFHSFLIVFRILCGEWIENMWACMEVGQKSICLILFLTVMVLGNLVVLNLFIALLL
Sequence of human Nav 1.8 (Q9Y5Y9 1148-1722 limits assumed): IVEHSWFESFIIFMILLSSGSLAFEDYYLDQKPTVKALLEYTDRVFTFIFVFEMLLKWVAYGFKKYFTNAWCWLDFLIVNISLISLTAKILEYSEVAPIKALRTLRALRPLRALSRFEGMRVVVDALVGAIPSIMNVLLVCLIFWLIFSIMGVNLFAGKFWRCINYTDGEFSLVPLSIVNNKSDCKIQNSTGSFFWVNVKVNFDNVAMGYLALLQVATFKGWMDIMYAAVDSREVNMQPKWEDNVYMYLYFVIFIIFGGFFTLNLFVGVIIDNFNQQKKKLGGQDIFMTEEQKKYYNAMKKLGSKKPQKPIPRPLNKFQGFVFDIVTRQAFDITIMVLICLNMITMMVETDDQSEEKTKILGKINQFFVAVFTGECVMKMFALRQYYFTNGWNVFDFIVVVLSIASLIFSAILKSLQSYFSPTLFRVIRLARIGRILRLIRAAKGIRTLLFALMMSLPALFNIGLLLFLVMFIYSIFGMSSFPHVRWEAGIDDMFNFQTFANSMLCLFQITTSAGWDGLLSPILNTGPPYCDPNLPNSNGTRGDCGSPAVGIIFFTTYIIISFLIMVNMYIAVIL

`C[C@]1(C(F)(F)F)C[C@@H](c2ccc(F)c(F)c2OCCCO)[C@H](C(=O)Nc2ccnc(C(N)=O)c2)O1` (relative stereo) [Compound 35, rel-4-((2R,3S,5R)-3-(3,4-difluoro-2-(3-hydroxypropoxy)phenyl)-5-methyl-5-(trifluoromethyl)tetrahydrofuran-2-carboxamido)picolinamide] was tested, and the IC50 was 100 to 1000 nM.

Same assay, conditions: HEK cells expressing a truncated form of human Nav 1.8; compound numbers without "*" (not marked as run in the presence of human serum); read-out: measured IC50 value in the E-VIPR Assay

Compared with `C[C@H]1[C@@H](c2ccc(F)c(F)c2OC2CC3(CC(O)C3)C2)[C@H](C(=O)Nc2ccnc(C(N)=O)c2)O[C@@]1(C)C(F)(F)F` (stereo partly drawn) [Compound 204, 4-((2R,3S,4S,5R)-3-(3,4-difluoro-2-((6-hydroxyspiro[3.3]heptan-2-yl)oxy)phenyl)-4,5-dimethyl-5-(trifluoromethyl)tetrahydrofuran-2-carboxamido)picolinamide], `C[C@H]1[C@@H](c2ccc(F)c(F)c2OCC2(CO)CC2)[C@H](C(=O)Nc2ccnc(C(N)=O)c2)O[C@@]1(C)C(F)(F)F` [Compound 95, 4-((2R,3S,4S,5R)-3-(3,4-difluoro-2-((1-(hydroxymethyl)cyclopropyl)methoxy)phenyl)-4,5-dimethyl-5-(trifluoromethyl)tetrahydrofuran-2-carboxamido)picolinamide] is lower in IC50: 100 to 1000 nM for the first, under 10 nM for the second.

First: COC1CN(CCOc2c([C@H]3[C@H](C(=O)Nc4ccnc(C(N)=O)c4)O[C@@](C)(C(F)(F)F)[C@H]3C)ccc(F)c2F)C1 [Compound 52, 4-((2R,3S,4S,5R)-3-(3,4-difluoro-2-(2-(3-methoxyazetidin-1-yl)ethoxy)phenyl)-4,5-dimethyl-5-(trifluoromethyl)tetrahydrofuran-2-carboxamido)picolinamide]
Second: CO[C@H]1CCN(CCOc2c([C@H]3[C@H](C(=O)Nc4ccnc(C(N)=O)c4)O[C@@](C)(C(F)(F)F)[C@H]3C)ccc(F)c2F)C1 [Compound 129, 4-((2R,3S,4S,5R)-3-(3,4-difluoro-2-(2-((S)-3-methoxypyrrolidin-1-yl)ethoxy)phenyl)-4,5-dimethyl-5-(trifluoromethyl)tetrahydrofuran-2-carboxamido)picolinamide]
The IC50 of the first is lower: under 10 nM for the first, 10 to 100 nM for the second.

`COc1c([C@H]2[C@H](C(=O)Nc3ccnc(C(=O)N4CC5CC(C4)O5)c3)O[C@@](C)(C(F)(F)F)[C@H]2C)ccc(F)c1F` [Compound 218, (2R,3S,4S,5R)-N-(2-(6-oxa-3-azabicyclo[3.1.1]heptane-3-carbonyl)pyridin-4-yl)-3-(3,4-difluoro-2-methoxyphenyl)-4,5-dimethyl-5-(trifluoromethyl)tetrahydrofuran-2-carboxamide] and `COc1c([C@H]2[C@H](C(=O)Nc3ccnc(C(=O)N4CC5CC(C4)N5)c3)O[C@@](C)(C(F)(F)F)[C@H]2C)ccc(F)c1F` [Compound 239, (2R,3S,4S,5R)-N-(2-(3,6-diazabicyclo[3.1.1]heptane-3-carbonyl)pyridin-4-yl)-3-(3,4-difluoro-2-methoxyphenyl)-4,5-dimethyl-5-(trifluoromethyl)tetrahydrofuran-2-carboxamide] cannot be ordered by IC50: under 10 nM for the first, under 10 nM for the second.

Going from `COc1c([C@@H]2[C@@H](C)[C@@](C)(C(F)(F)F)O[C@H]2C(=O)Nc2ccnc(C(N)=O)c2)ccc(OCC2CC2)c1F` (single isomer, unassigned) [Compound 142] to `COc1c([C@H]2[C@H](C(=O)Nc3ccnc(C(N)=O)c3)O[C@@](C)(C(F)(F)F)[C@H]2C)ccc(OC2CC(F)(F)C2)c1F` [Compound 207, 4-((2R,3S,4S,5R)-3-(4-(3,3-difluorocyclobutoxy)-3-fluoro-2-methoxyphenyl)-4,5-dimethyl-5-(trifluoromethyl)tetrahydrofuran-2-carboxamido) picolinamide], the IC50 falls from at least 1000 nM to under 10 nM.

Compared with `COc1c([C@H]2[C@H](C(=O)Nc3ccnc(C(=O)N4CCN(C)C[C@@H]4C)c3)O[C@@](C)(C(F)(F)F)[C@H]2C)ccc(F)c1F` [Compound 272, (2R,3S,4S,5R)-3-(3,4-difluoro-2-methoxyphenyl)-N-(2-((S)-2,4-dimethylpiperazine-1-carbonyl)pyridin-4-yl)-4,5-dimethyl-5-(trifluoromethyl)tetrahydrofuran-2-carboxamide], `COc1c([C@H]2[C@H](C(=O)Nc3ccnc(C(=O)N4CCNC[C@H]4C)c3)O[C@@](C)(C(F)(F)F)[C@H]2C)ccc(F)c1F` [Compound 235, (2R,3S,4S,5R)-3-(3,4-difluoro-2-methoxyphenyl)-4,5-dimethyl-N-(2-((R)-2-methylpiperazine-1-carbonyl)pyridin-4-yl)-5-(trifluoromethyl)tetrahydrofuran-2-carboxamide] is lower in IC50: 10 to 100 nM for the first, under 10 nM for the second.

Compared with `C[C@@H]1[C@H](c2ccc(F)c3c2CCC3(F)F)[C@@H](C(=O)Nc2ccnc(C(N)=O)c2)O[C@]1(C)C(F)(F)F` (single isomer, unassigned) [Compound 148], `C[C@H]1[C@@H](c2ccc(F)c(F)c2OCC2(F)COC2)[C@H](C(=O)Nc2ccnc(C(N)=O)c2)O[C@@]1(C)C(F)(F)F` [Compound 64, 4-((2R,3S,4S,5R)-3-(3,4-difluoro-2-((3-fluorooxetan-3-yl)methoxy)phenyl)-4,5-dimethyl-5-(trifluoromethyl)tetrahydrofuran-2-carboxamido)picolinamide] is lower in IC50: at least 1000 nM for the first, under 10 nM for the second. The second is the more potent here.

First: COc1c([C@H]2[C@H](C(=O)Nc3ccnc(C(=O)N4CCNCC4)n3)O[C@@](C)(C(F)(F)F)[C@H]2C)ccc(F)c1F [Compound 19, (2R,3S,4S,5R)-3-(3,4-difluoro-2-methoxyphenyl)-4,5-dimethyl-N-(2-(piperazine-1-carbonyl)pyrimidin-4-yl)-5-(trifluoromethyl)tetrahydrofuran-2-carboxamide]
Second: COc1c([C@H]2[C@H](C(=O)Nc3ccnc(C(=O)N4CCN[C@H](C)C4)c3)O[C@@](C)(C(F)(F)F)[C@H]2C)ccc(F)c1F [Compound 249, (2R,3S,4S,5R)-3-(3,4-difluoro-2-methoxyphenyl)-4,5-dimethyl-N-(2-((R)-3-methylpiperazine-1-carbonyl)pyridin-4-yl)-5-(trifluoromethyl)tetrahydrofuran-2-carboxamide]
The IC50 of the first is higher: 10 to 100 nM for the first, under 10 nM for the second.

Compared with `C[C@H]1[C@@H](c2ccc(F)c(F)c2OCCN2C3CCC2COC3)[C@H](C(=O)Nc2ccnc(C(N)=O)c2)O[C@@]1(C)C(F)(F)F` [Compound 113, 4-((2R,3S,4S,5R)-3-(2-(2-(3-oxa-8-azabicyclo[3.2.1]octan-8-yl)ethoxy)-3,4-difluorophenyl)-4,5-dimethyl-5-(trifluoromethyl)tetrahydrofuran-2-carboxamido)picolinamide], `C[C@H]1[C@@H](c2ccc(F)c(F)c2OCC(=NO)C2CC2)[C@H](C(=O)Nc2ccnc(C(N)=O)c2)O[C@@]1(C)C(F)(F)F` [Compound 182, 4-((2R,3S,4S,5R)-3-(2-(2-cyclopropyl-2-(hydroxyimino)ethoxy)-3,4-difluorophenyl)-4,5-dimethyl-5-(trifluoromethyl)tetrahydrofuran-2-carboxamido) picolinamide] is lower in IC50: 10 to 100 nM for the first, under 10 nM for the second. The second is the more potent here.

Compared with `COCCOc1c([C@@H]2[C@@H](C(=O)Nc3ccnc(C(N)=O)n3)O[C@](C)(C(F)(F)F)[C@@H]2C)ccc(F)c1C` (single isomer, unassigned) [Compound 4], `COCC(COc1c([C@H]2[C@H](C(=O)Nc3ccnc(C(N)=O)c3)O[C@@](C)(C(F)(F)F)[C@H]2C)ccc(F)c1F)OC` (stereo partly drawn) [Compound 78, 4-((2R,3S,4S,5R)-3-(2-(2,3-dimethoxypropoxy)-3,4-difluorophenyl)-4,5-dimethyl-5-(trifluoromethyl)tetrahydrofuran-2-carboxamido)picolinamide] is lower in IC50: at least 1000 nM for the first, under 10 nM for the second. The second is the more potent here.

`COc1c([C@H]2[C@H](C(=O)Nc3ccnc(C(=O)N4CCO[C@H]5CNC[C@H]54)c3)O[C@@](C)(C(F)(F)F)[C@H]2C)ccc(F)c1F` [Compound 243, (2R,3S,4S,5R)-3-(3,4-difluoro-2-methoxyphenyl)-4,5-dimethyl-N-(2-((4aR,7aS)-octahydropyrrolo[3,4-b][1,4]oxazine-4-carbonyl)pyridin-4-yl)-5-(trifluoromethyl)tetrahydrofuran-2-carboxamide] and `COc1c([C@H]2[C@H](C(=O)Nc3ccnc(C(=O)N4CCNC[C@@H]4C)c3)O[C@@](C)(C(F)(F)F)[C@H]2C)ccc(F)c1F` [Compound 232, (2R,3S,4S,5R)-3-(3,4-difluoro-2-methoxyphenyl)-4,5-dimethyl-N-(2-((S)-2-methylpiperazine-1-carbonyl)pyridin-4-yl)-5-(trifluoromethyl)tetrahydrofuran-2-carboxamide] cannot be ordered by IC50: under 10 nM for the first, under 10 nM for the second.

Compared with `COCc1c([C@H]2[C@H](C(=O)Nc3ccnc(C(N)=O)c3)O[C@@](C)(C(F)(F)F)[C@H]2C)ccc(F)c1F` (single isomer, unassigned) [Compound 147], `C[C@H]1[C@@H](c2ccc(F)c(F)c2OCCC(C)(C)C#N)[C@H](C(=O)Nc2ccnc(C(N)=O)c2)O[C@@]1(C)C(F)(F)F` [Compound 74, 4-((2R,3S,4S,5R)-3-(2-(3-cyano-3-methylbutoxy)-3,4-difluorophenyl)-4,5-dimethyl-5-(trifluoromethyl)tetrahydrofuran-2-carboxamido)picolinamide] is higher in IC50: under 10 nM for the first, 10 to 100 nM for the second.

`COc1c([C@H]2[C@H](C(=O)Nc3ccnc(C(=O)N4C[C@@H]5C[C@H]4CN5)c3)O[C@@](C)(C(F)(F)F)[C@H]2C)ccc(F)c1F` [Compound 240, (2R,3S,4S,5R)-N-(2-((1S,4S)-2,5-diazabicyclo[2.2.1]heptane-2-carbonyl)pyridin-4-yl)-3-(3,4-difluoro-2-methoxyphenyl)-4,5-dimethyl-5-(trifluoromethyl)tetrahydrofuran-2-carboxamide] and `CNCCNC(=O)c1cc(NC(=O)[C@@H]2O[C@@](C)(C(F)(F)F)[C@@H](C)[C@H]2c2ccc(F)c(F)c2OC)ccn1` [Compound 231, 4-((2R,3S,4S,5R)-3-(3,4-difluoro-2-methoxyphenyl)-4,5-dimethyl-5-(trifluoromethyl)tetrahydrofuran-2-carboxamido)-N-(2-(methylamino)ethyl)picolinamide] cannot be ordered by IC50: under 10 nM for the first, under 10 nM for the second.
